Laboratory results taken from ChEMBL document CHEMBL1201862, “PubChem BioAssay data set” (2004).
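All cell lines were grown in 96-well plates and treated with compound for 48 hours. GI50: concentration for 50% inhibition of growth.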 Activity calls are given as the source filed them. No stated cut-off is given here; in the data, active = GI50 up to about 1.1 µM and inactive = higher.

Legend:
Experiment in all cases: NCI tumour cell line growth inhibition, 48 h
786-0 = test system: 786-0
A549 = test system: A549
ACHN = test system: ACHN
BT-549 = test system: BT-549
CAKI-1 = test system: CAKI-1
CCRF-CEM = test system: CCRF-CEM
COLO 205 = test system: COLO 205
DU-145 = test system: DU-145
EKVX = test system: EKVX
HCT-116 = test system: HCT-116
HCT-15 = test system: HCT-15
HL-60 = test system: HL-60
HOP-62 = test system: HOP-62
HOP-92 = test system: HOP-92
HT-29 = test system: HT-29
Hs-578T = test system: Hs-578T
IGROV-1 = test system: IGROV-1
K562 = test system: K562
KM12 = test system: KM12
LOX IMVI = test system: LOX IMVI
M14 = test system: M14
MCF7 = test system: MCF7
MDA-MB-231 = test system: MDA-MB-231
MDA-MB-435 = test system: MDA-MB-435
MDA-N = test system: MDA-N
MOLT-4 = test system: MOLT-4
Malme-3M = test system: Malme-3M
NCI-H226 = test system: NCI-H226
NCI-H23 = test system: NCI-H23
NCI-H460 = test system: NCI-H460
NCI-H522 = test system: NCI-H522
NCI/ADR-RES = test system: NCI/ADR-RES
OVCAR-3 = test system: OVCAR-3
OVCAR-4 = test system: OVCAR-4
OVCAR-5 = test system: OVCAR-5
OVCAR-8 = test system: OVCAR-8
PC-3 = test system: PC-3
RPMI-8226 = test system: RPMI-8226
SF-268 = test system: SF-268
SF-295 = test system: SF-295
SF-539 = test system: SF-539
SK-MEL-28 = test system: SK-MEL-28
SK-MEL-2 = test system: SK-MEL-2
SK-OV-3 = test system: SK-OV-3
SN12C = test system: SN12C
SNB-19 = test system: SNB-19
SNB-75 = test system: SNB-75
SR = test system: SR
SW-620 = test system: SW-620
TK-10 = test system: TK-10
U-251 = test system: U-251
UACC-257 = test system: UACC-257
UACC-62 = test system: UACC-62
UO-31 = test system: UO-31
A498 = test system: A498
HCC 2998 = test system: HCC 2998
RXF 393 = test system: RXF 393
SK-MEL-5 = test system: SK-MEL-5

SMILES: O=C1/C(=C/c2ccccc2)CCCc2ccccc21
- GI50 (786-0): 16.4 µM (inactive)
- GI50 (A549): 22.9 µM (inactive)
- GI50 (ACHN): 20.8 µM (inactive)
- GI50 (BT-549): 20 µM (inactive)
- GI50 (CAKI-1): 22.3 µM (inactive)
- GI50 (CCRF-CEM): 15.7 µM (inactive)
- GI50 (COLO 205): 18.6 µM (inactive)
- GI50 (DU-145): 23.2 µM (inactive)
- GI50 (EKVX): 19.5 µM (inactive)
- GI50 (HCT-116): 16.8 µM (inactive)
- GI50 (HCT-15): 16.2 µM
- GI50 (HL-60): 15.2 µM (inactive)
- GI50 (HOP-62): 19.2 µM (inactive)
- GI50 (HOP-92): 15.3 µM (inactive)
- GI50 (HT-29): 17.7 µM (inactive)
- GI50 (Hs-578T): 21.9 µM (inactive)
- GI50 (IGROV-1): 19.6 µM (inactive)
- GI50 (K562): 19.2 µM (inactive)
- GI50 (KM12): 18.1 µM (inactive)
- GI50 (LOX IMVI): 18.4 µM (inactive)
- GI50 (M14): 20.1 µM (inactive)
- GI50 (MCF7): 17.4 µM (inactive)
- GI50 (MDA-MB-231): 20.1 µM (inactive)
- GI50 (MDA-MB-435): 18.3 µM (inactive)
- GI50 (MDA-N): 19 µM (inactive)
- GI50 (MOLT-4): 18.5 µM (inactive)
- GI50 (Malme-3M): 20.8 µM (inactive)
- GI50 (NCI-H226): 18.4 µM (inactive)
- GI50 (NCI-H23): 17.5 µM (inactive)
- GI50 (NCI-H460): 16 µM (inactive)
- GI50 (NCI-H522): 21.1 µM (inactive)
- GI50 (NCI/ADR-RES): 20 µM (inactive)
- GI50 (OVCAR-3): 18.4 µM (inactive)
- GI50 (OVCAR-4): 17.3 µM (inactive)
- GI50 (OVCAR-5): 19.1 µM (inactive)
- GI50 (OVCAR-8): 20.4 µM (inactive)
- GI50 (PC-3): 18.1 µM (inactive)
- GI50 (RPMI-8226): 16.6 µM (inactive)
- GI50 (SF-268): 17.7 µM (inactive)
- GI50 (SF-295): 19 µM (inactive)
- GI50 (SF-539): 17.9 µM (inactive)
- GI50 (SK-MEL-28): 17.4 µM (inactive)
- GI50 (SK-MEL-2): 16.2 µM (inactive)
- GI50 (SK-OV-3): 38.2 µM (inactive)
- GI50 (SN12C): 19.6 µM (inactive)
- GI50 (SNB-19): 14 µM (inactive)
- GI50 (SNB-75): 35.3 µM (inactive)
- GI50 (SR): 14.4 µM (inactive)
- GI50 (SW-620): 17.7 µM (inactive)
- GI50 (TK-10): 19.8 µM (inactive)
- GI50 (U-251): 15.7 µM (inactive)
- GI50 (UACC-257): 15.7 µM (inactive)
- GI50 (UACC-62): 15.1 µM (inactive)
- GI50 (UO-31): 17.6 µM (inactive)

SMILES: Cc1ccc(C(CC(=O)C(C)(C)CN2CCCCC2)SCCS(=O)(=O)O)cc1 (stereo not drawn)
- GI50 (786-0): 26.2 µM (inactive)
- GI50 (A498): 19.7 µM (inactive)
- GI50 (A549): 36.1 µM (inactive)
- GI50 (ACHN): 25.2 µM (inactive)
- GI50 (BT-549): 74.6 µM (inactive)
- GI50 (CAKI-1): 22.3 µM (inactive)
- GI50 (CCRF-CEM): 19.3 µM (inactive)
- GI50 (COLO 205): 18.8 µM (inactive)
- GI50 (DU-145): 41.9 µM (inactive)
- GI50 (EKVX): 21.9 µM (inactive)
- GI50 (HCC 2998): 39.4 µM (inactive)
- GI50 (HCT-116): 22.3 µM (inactive)
- GI50 (HCT-15): 22.6 µM
- GI50 (HOP-62): 36.6 µM (inactive)
- GI50 (HOP-92): 17.1 µM (inactive)
- GI50 (HT-29): 24 µM (inactive)
- GI50 (Hs-578T): 30.7 µM (inactive)
- GI50 (IGROV-1): 33.9 µM (inactive)
- GI50 (K562): 11.6 µM (inactive)
- GI50 (KM12): 31.1 µM (inactive)
- GI50 (M14): 23.8 µM (inactive)
- GI50 (MCF7): 21.6 µM (inactive)
- GI50 (MDA-MB-231): 34.7 µM (inactive)
- GI50 (MDA-MB-435): 23.7 µM (inactive)
- GI50 (MDA-N): 31 µM (inactive)
- GI50 (MOLT-4): 20.8 µM (inactive)
- GI50 (Malme-3M): 26.4 µM (inactive)
- GI50 (NCI-H226): 30.7 µM (inactive)
- GI50 (NCI-H23): 27.9 µM (inactive)
- GI50 (NCI-H460): 42.3 µM (inactive)
- GI50 (NCI-H522): 25.8 µM (inactive)
- GI50 (NCI/ADR-RES): 28.8 µM (inactive)
- GI50 (OVCAR-3): 15.5 µM (inactive)
- GI50 (OVCAR-4): 31.6 µM (inactive)
- GI50 (OVCAR-5): 20.9 µM (inactive)
- GI50 (OVCAR-8): 21.9 µM (inactive)
- GI50 (PC-3): 34.4 µM (inactive)
- GI50 (RPMI-8226): 22.1 µM (inactive)
- GI50 (RXF 393): 11.8 µM (inactive)
- GI50 (SF-268): 37.8 µM (inactive)
- GI50 (SF-295): 15 µM (inactive)
- GI50 (SF-539): 23.2 µM (inactive)
- GI50 (SK-MEL-2): 12.5 µM (inactive)
- GI50 (SK-MEL-5): 23.2 µM (inactive)
- GI50 (SK-OV-3): 49.3 µM (inactive)
- GI50 (SN12C): 25.3 µM (inactive)
- GI50 (SNB-19): 57.4 µM (inactive)
- GI50 (SNB-75): 31.3 µM (inactive)
- GI50 (SR): 12.2 µM (inactive)
- GI50 (SW-620): 25.8 µM (inactive)
- GI50 (TK-10): 25.9 µM (inactive)
- GI50 (U-251): 29.4 µM (inactive)
- GI50 (UACC-62): 21.7 µM (inactive)
- GI50 (UO-31): 25.2 µM (inactive)
